The record followed here is patent publication US10308639B2, “Phosphatidylinositol 3-kinase inhibitors” (Gilead Sciences, Inc., priority 2014, dated 2019).

Read-outs that look alike come from different tables or passages of the source. Bounds are passed on as bounds.

What all share (type): biochemical
The target of one experiment is T1, PI3Kβ (Homo sapiens, UniProt P42338).
T1 construct: made in house
Description: TR-FRET enzymatic activity assay, PI3Kβ. On the technique in general: In TR-FRET formats the signal depends on donor and acceptor labels being close together.

A further experiment deals with T2, PI3Kδ (Homo sapiens, UniProt O00329).
T2 construct: made in house
T2 sequence (O00329 whole entry): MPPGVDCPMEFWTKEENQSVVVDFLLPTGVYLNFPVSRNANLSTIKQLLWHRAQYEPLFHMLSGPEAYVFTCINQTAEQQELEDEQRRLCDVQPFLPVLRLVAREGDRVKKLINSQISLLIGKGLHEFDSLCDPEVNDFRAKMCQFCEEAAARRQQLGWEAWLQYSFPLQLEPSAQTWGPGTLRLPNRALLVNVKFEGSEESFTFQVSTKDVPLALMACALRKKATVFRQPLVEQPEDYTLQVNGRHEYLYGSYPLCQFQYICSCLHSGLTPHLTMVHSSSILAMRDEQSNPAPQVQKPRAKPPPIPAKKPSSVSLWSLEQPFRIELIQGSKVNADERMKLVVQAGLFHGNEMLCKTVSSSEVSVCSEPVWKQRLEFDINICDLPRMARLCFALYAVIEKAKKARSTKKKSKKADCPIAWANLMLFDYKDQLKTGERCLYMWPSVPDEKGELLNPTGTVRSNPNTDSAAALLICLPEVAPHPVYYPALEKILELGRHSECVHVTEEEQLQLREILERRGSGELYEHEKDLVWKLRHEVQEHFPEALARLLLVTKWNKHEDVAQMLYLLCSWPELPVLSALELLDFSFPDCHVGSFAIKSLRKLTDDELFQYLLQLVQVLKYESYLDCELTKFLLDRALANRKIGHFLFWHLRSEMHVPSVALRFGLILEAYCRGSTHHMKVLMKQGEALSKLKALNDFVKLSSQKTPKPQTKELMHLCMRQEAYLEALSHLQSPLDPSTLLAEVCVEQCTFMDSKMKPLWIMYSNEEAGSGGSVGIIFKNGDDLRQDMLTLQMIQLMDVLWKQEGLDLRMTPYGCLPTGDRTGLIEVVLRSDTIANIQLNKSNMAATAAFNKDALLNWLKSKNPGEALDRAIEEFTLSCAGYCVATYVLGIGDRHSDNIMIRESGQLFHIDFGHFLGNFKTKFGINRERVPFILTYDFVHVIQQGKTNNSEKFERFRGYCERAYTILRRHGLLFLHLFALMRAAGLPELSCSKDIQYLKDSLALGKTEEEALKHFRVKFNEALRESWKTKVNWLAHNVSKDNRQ
T2 sequence (P27986 whole entry partner): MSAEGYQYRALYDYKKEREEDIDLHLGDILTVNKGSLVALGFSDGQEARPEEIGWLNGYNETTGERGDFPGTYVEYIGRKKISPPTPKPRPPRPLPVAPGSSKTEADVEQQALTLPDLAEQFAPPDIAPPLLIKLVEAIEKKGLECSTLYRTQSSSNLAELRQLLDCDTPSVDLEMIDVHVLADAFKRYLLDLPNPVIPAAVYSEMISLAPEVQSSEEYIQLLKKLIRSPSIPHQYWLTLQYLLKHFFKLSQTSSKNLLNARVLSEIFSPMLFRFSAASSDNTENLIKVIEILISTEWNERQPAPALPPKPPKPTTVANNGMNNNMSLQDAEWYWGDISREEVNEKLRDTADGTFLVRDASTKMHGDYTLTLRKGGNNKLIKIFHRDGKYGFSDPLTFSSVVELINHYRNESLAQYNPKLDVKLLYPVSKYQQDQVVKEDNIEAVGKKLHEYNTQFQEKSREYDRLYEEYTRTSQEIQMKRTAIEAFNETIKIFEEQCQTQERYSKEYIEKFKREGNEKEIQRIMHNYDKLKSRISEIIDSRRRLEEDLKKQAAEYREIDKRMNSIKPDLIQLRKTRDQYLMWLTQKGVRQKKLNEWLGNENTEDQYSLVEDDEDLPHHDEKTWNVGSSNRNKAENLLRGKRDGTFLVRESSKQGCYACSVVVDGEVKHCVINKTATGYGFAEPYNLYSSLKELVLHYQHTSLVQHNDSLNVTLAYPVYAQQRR
Description: TR-FRET enzymatic activity assay, PI3Kδ.

In another experiment the target is T3, PI3Kγ (Homo sapiens, UniProt P48736).
T3 construct: made in house
T3 sequence (P48736 whole entry): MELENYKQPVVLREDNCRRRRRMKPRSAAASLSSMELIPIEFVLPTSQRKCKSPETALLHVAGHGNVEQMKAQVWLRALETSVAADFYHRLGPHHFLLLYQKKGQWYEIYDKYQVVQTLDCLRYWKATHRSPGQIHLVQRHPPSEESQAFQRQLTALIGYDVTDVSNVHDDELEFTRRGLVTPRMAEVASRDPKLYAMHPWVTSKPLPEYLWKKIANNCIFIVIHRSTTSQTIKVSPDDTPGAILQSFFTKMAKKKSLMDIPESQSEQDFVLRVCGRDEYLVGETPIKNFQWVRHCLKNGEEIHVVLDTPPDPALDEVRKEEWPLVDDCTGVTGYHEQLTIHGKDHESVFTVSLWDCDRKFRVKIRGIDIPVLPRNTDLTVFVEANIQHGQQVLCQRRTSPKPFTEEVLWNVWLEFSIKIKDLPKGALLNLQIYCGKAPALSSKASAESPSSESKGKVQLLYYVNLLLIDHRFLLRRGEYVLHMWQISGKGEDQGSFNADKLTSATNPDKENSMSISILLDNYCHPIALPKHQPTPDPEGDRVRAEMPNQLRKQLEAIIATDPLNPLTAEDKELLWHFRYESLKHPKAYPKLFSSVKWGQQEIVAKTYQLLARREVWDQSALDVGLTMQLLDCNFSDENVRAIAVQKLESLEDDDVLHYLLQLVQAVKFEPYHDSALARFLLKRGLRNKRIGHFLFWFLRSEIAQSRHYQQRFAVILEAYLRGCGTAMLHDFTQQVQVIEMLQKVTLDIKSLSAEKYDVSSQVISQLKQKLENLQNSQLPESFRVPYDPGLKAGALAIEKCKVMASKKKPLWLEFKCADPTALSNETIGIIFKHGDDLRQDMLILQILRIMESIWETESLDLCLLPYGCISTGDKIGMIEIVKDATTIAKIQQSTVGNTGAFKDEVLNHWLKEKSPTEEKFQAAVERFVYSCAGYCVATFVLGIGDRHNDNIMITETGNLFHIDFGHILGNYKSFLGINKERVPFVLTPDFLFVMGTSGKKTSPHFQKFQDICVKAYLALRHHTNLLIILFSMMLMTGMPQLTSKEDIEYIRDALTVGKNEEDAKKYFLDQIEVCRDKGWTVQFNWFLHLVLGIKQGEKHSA
Nature of the experiment: TR-FRET enzymatic activity assay, PI3Kγ. The note with it: read-out: PI3Kγ IC50. A digest of the protocol:
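Enzymatic activity against the PI3K isoforms was measured using a time-resolved fluorescence resonance energy transfer (TR-FRET) assay.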

Where [1] appears, read: Table 2, TR-FRET, 2x Km ATP, 30 minutes at 25° C.

T1 sequence (P42338 whole entry): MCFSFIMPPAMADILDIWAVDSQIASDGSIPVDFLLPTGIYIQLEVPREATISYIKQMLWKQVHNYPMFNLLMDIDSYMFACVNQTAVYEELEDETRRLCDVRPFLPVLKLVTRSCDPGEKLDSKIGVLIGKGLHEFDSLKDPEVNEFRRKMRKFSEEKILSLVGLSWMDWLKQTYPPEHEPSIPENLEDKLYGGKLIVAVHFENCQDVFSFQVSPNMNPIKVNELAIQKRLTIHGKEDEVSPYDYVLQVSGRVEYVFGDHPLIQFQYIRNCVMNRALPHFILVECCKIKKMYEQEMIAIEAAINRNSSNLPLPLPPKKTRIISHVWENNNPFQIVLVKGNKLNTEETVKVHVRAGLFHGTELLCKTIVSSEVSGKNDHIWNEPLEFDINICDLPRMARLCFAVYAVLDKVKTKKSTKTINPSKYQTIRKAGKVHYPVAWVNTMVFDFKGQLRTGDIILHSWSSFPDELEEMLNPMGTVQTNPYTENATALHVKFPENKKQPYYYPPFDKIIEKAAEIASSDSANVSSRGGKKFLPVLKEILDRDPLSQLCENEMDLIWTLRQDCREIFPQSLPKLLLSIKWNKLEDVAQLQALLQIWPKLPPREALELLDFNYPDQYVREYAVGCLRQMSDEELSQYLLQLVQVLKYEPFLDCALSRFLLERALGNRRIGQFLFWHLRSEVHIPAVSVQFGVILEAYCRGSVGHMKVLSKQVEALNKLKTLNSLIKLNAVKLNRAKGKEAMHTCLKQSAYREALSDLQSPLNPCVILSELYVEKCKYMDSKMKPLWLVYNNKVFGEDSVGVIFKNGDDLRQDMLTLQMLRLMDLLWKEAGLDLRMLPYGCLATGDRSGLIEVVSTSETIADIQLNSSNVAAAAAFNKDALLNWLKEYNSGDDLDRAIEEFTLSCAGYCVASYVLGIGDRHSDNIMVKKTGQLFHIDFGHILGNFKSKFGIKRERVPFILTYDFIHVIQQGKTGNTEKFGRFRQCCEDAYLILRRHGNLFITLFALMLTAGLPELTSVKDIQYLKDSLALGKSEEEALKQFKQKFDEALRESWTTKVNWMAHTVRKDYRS
T1 sequence (P27986 whole entry partner): as the sequence (P27986 whole entry partner) above

Turning to `C[C@H](Nc1nc(N)nc(N)c1Cl)c1nc2cccc(C(F)(F)F)c2c(=O)n1-c1cc[nH]n1` [Compound 208, (S)-2-(1-((2,6-diamino-5-chloropyrimidin-4-yl)amino)ethyl)-3-(1H-pyrazol-3-yl)-5-(trifluoromethyl)quinazolin-4(3H)-one], the IC50 at PI3Kβ (Table 2a, same assay) amounted to 8 nM; against PI3Kδ (Table 2a, same assay) it was 6 nM; on PI3Kγ (Table 2a, same assay), 4400 nM.
`C[C@H](Nc1nc(N)nc2[nH]ncc12)c1nc2cccc(Cl)c2c(=O)n1-c1cc[nH]n1` [Compound 90, (S)-2-(1-((6-amino-1H-pyrazolo[3,4-d]pyrimidin-4-yl)amino)ethyl)-5-chloro-3-(1H-pyrazol-3-yl)quinazolin-4(3H)-one]: the IC50 is 1800 nM against PI3Kβ (setting [1]), 830 nM against PI3Kδ (setting [1]) and above 10000 nM on PI3Kγ.
Regarding `CCC[C@H](Nc1nc(N)nc(N)c1Cl)c1nc2c(Cl)ccc(Cl)c2c(=O)n1-c1cn[nH]c1` [Compound 252, (S)-5,8-dichloro-2-(1-((2,6-diamino-5-chloropyrimidin-4-yl)amino)butyl)-3-(1H-pyrazol-4-yl)quinazolin-4(3H)-one], the IC50 is 920 nM against PI3Kβ (Table 2a, same assay); 75 nM at PI3Kδ (Table 2a, same assay); above 10000 nM on PI3Kγ (Table 2a, same assay).
In the case of `C[C@H](Nc1nc(N)nc(N)c1Cl)c1nc2c(C(F)F)cccc2c(=O)n1-c1cc[nH]n1` [Compound 200, (S)-2-(1-((2,6-diamino-5-chloropyrimidin-4-yl)amino)ethyl)-8-(difluoromethyl)-3-(1H-pyrazol-3-yl)quinazolin-4(3H)-one], the IC50 is 280 nM on PI3Kβ (Table 2a, same assay); 160 nM against PI3Kδ (Table 2a, same assay); above 10000 nM at PI3Kγ (Table 2a, same assay).
In the case of `N#Cc1c(N)nc(N)nc1N[C@H](c1nc2c(Cl)ccc(Cl)c2c(=O)n1-c1cc[nH]n1)C1CC1` [Compound 32, (S)-2,4-diamino-6-((cyclopropyl(5,8-dichloro-4-oxo-3-(1H-pyrazol-3-yl)-3,4-dihydroquinazolin-2-yl)methyl)amino)pyrimidine-5-carbonitrile], the IC50 against PI3Kβ (setting [1]) stood at 1 nM; on PI3Kδ (setting [1]), 1 nM; at PI3Kγ (setting [1]), 600 nM.
Consider `N#Cc1c(N)nc(N)nc1N[C@H](c1nc2c(Cl)cc(F)cc2c(=O)n1-c1cn[nH]c1)C1CC1` [Compound 269, (S)-2,4-diamino-6-(((8-chloro-6-fluoro-4-oxo-3-(1H-pyrazol-4-yl)-3,4-dihydroquinazolin-2-yl)(cyclopropyl)methyl)amino)pyrimidine-5-carbonitrile], for which the IC50 stood at 0.9 nM on PI3Kβ (Table 2a, same assay); 1 nM against PI3Kδ (Table 2a, same assay); 170 nM on PI3Kγ (Table 2a, same assay).
Taken in the same sequence, the figures for `C[C@H](Nc1nc(N)nc(N)c1Cl)c1nc2c(F)ccc(F)c2c(=O)n1-c1cc[nH]n1` [Compound 152, (S)-2-(1-((2,6-diamino-5-chloropyrimidin-4-yl)amino)ethyl)-5,8-difluoro-3-(1H-pyrazol-3-yl)quinazolin-4(3H)-one] were 20 nM, 13 nM and above 10000 nM.
Consider `CCC[C@H](Nc1nc(N)nc(N)c1C#N)c1nc2c(Cl)ccc(Cl)c2c(=O)n1-c1cc[nH]n1` [Compound 254, (S)-2,4-diamino-6-((1-(5,8-dichloro-4-oxo-3-(1H-pyrazol-3-yl)-3,4-dihydroquinazolin-2-yl)butyl)amino)pyrimidine-5-carbonitrile], for which the IC50 was determined as 2 nM on PI3Kβ (Table 2a, same assay); 2 nM at PI3Kδ (Table 2a, same assay); 1400 nM at PI3Kγ (Table 2a, same assay).
`CC[C@H](NC(=O)c1nccnc1N)c1nc2c(Cl)ccc(Cl)c2c(=O)n1-c1cn[nH]c1` [Compound 122, (S)-3-amino-N-(1-(5,8-dichloro-4-oxo-3-(1H-pyrazol-4-yl)-3,4-dihydroquinazolin-2-yl)propyl)pyrazine-2-carboxamide]: the results for the half-maximal inhibitory concentration (IC50) against PI3Kβ (setting [1]), at PI3Kδ (setting [1]) and at PI3Kγ were 640 nM, 200 nM and above 10000 nM, respectively.
On to `C[C@H](Nc1ncnc2occc12)c1nc2cccc(Cl)c2c(=O)n1-c1cc[nH]n1` [Compound 9, (S)-5-chloro-2-(1-(furo[2,3-d]pyrimidin-4-ylamino)ethyl)-3-(1H-pyrazol-3-yl)quinazolin-4(3H)-one], for which the IC50 on PI3Kβ (setting [1]) was 940 nM; against PI3Kδ (setting [1]), 140 nM; at PI3Kγ, above 10000 nM.
With `CC[C@H](Nc1nc(N)nc2[nH]nc(Br)c12)c1nc2c(Cl)ccc(Cl)c2c(=O)n1-c1cc[nH]n1` [Compound 81, (S)-2-(1-((6-amino-3-bromo-1H-pyrazolo[3,4-d]pyrimidin-4-yl)amino)propyl)-5,8-dichloro-3-(1H-pyrazol-3-yl)quinazolin-4(3H)-one], the IC50 against PI3Kβ (setting [1]) is 12 nM; against PI3Kδ (setting [1]) it was 16 nM; on PI3Kγ, above 10000 nM.
In the case of `C[C@H](Nc1nc(N)nc(N)c1C#N)c1nc2cccc(Cl)c2c(=O)n1-c1n[nH]cc1Br` [Compound 84, (S)-2,4-diamino-6-((1-(3-(4-bromo-1H-pyrazol-3-yl)-5-chloro-4-oxo-3,4-dihydroquinazolin-2-yl)ethyl)amino)pyrimidine-5-carbonitrile], the IC50 against PI3Kβ (setting [1]) amounted to 8 nM; on PI3Kδ (setting [1]), 0.4 nM; at PI3Kγ (setting [1]), 93 nM.
Take `C[C@H](Nc1nc(N)nc(N)c1Cl)c1nc2c(Cl)ccc(Cl)c2c(=O)n1-c1cn[nH]c1` [Compound 158, (S)-5,8-dichloro-2-(1-((2,6-diamino-5-chloropyrimidin-4-yl)amino)ethyl)-3-(1H-pyrazol-4-yl)quinazolin-4(3H)-one]: the IC50 was 83 nM against PI3Kβ (Table 2a, same assay); 10 nM against PI3Kδ (Table 2a, same assay); 5200 nM at PI3Kγ (Table 2a, same assay).
Turning to `C[C@H](Nc1ncnc2scc(C#N)c12)c1nc2cccc(Cl)c2c(=O)n1-c1cc[nH]n1` [Compound 202, (S)-4-((1-(5-chloro-4-oxo-3-(1H-pyrazol-3-yl)-3,4-dihydroquinazolin-2-yl)ethyl)amino)thieno[2,3-d]pyrimidine-5-carbonitrile], the IC50 came to 62 nM against PI3Kβ (Table 2a, same assay); 0.5 nM against PI3Kδ (Table 2a, same assay); 14 nM at PI3Kγ (Table 2a, same assay).
`Nc1nc(N)c(Cl)c(N[C@H](c2nc3c(Cl)ccc(F)c3c(=O)n2-c2cc[nH]n2)C2CC2)n1` [Compound 148, (S)-8-chloro-2-(cyclopropyl((2,6-diamino-5-chloropyrimidin-4-yl)amino)methyl)-5-fluoro-3-(1H-pyrazol-3-yl)quinazolin-4(3H)-one]: the IC50 on PI3Kβ (Table 2a, same assay) is 52 nM; against PI3Kδ (Table 2a, same assay), 44 nM; at PI3Kγ (Table 2a, same assay), above 10000 nM.
For `CC[C@H](Nc1nc(N)nc(N)c1C#N)c1nc2c(C#N)cccc2c(=O)n1-c1cc[nH]n1` [Compound 75, (S)-2-(1-((2,6-diamino-5-cyanopyrimidin-4-yl)amino)propyl)-4-oxo-3-(1H-pyrazol-3-yl)-3,4-dihydroquinazoline-8-carbonitrile], the figures for the IC50 against PI3Kβ (setting [1]), on PI3Kδ (setting [1]) and on PI3Kγ (setting [1]) were 1 nM, 3 nM and 5100 nM, respectively.
As to `N#Cc1c(N)nc(N)nc1N[C@H](c1nc2ccc(F)c(Cl)c2c(=O)n1-c1cc[nH]n1)C1CC1` [Compound 262, (S)-2,4-diamino-6-(((5-chloro-6-fluoro-4-oxo-3-(1H-pyrazol-3-yl)-3,4-dihydroquinazolin-2-yl)(cyclopropyl)methyl)amino)pyrimidine-5-carbonitrile], the 50% inhibitory concentration (IC50) against PI3Kβ (Table 2a, same assay) was found to be 5 nM; at PI3Kδ (Table 2a, same assay), 1 nM; on PI3Kγ (Table 2a, same assay) it was 405 nM.

What is called IC50 is the concentration needed to halve the response being measured.
